Data set [1] in a line: Hematological toxicity evaluation after single oral administration (routine blood test).
The next data set can be described thus: in vivo. The note with it: male, C57BL/6, mouse, in vivo, po. As for the experimental part:
Specifically, the experimental animals were twelve six-week-old C57BL/6 male mice. The experimental animals were housed in polycarbonate cages in groups of four, and had free access to food and water. The animal housing room was maintained at a temperature of 20±1°C and humidity of about 50±5%, with a constant 12-hour light/dark cycle. The experimental animals were acclimated to the animal room environment for one week, and then randomly divided into three groups of four animals each based on body weight.

A short description of data set [2]: Efficacy on collagen-induced rheumatoid arthritis (arthritis score). Type of data set: in vivo, DBA/1 male mice. As for the experimental part:
The experimental animals were 30 8-week-old DBA/1 male mice. […] The number of normal mice was set to five in order to minimize the number of experimental animals. The group administered with Compound (1) consisted of 5 to 6 mice, a minimal number required to obtain statistically meaningful data given the limited amount of the drug.
(§1) In order to establish a rheumatoid arthritis model, 100 µL of a mixture solution in which 2 mg/mL of chick type II collagen and 1 mg/mL of Complete Freund's Adjuvant (CFA) were mixed in a ratio of 1:1 was administered intradermally to each of the mouse tails. After 19 days, 100 µL of an emulsion in which 2 mg/mL of chick type II collagen and Incomplete Freund's Adjuvant (IFA) were mixed in a ratio of 1:1 was administered intradermally to each of the mouse tails.
The test substances of Table 23 were administered orally every day according to the drug dosing period and dosing frequency. As for the rheumatoid arthritis score (arthritis score), the score of each of the four paws was quantified according to the criteria shown in the following Table 24, and the individual scores were summed to generate the final score.
The experimental animals were 31 8-week-old DBA/1 male mice. […] The number of normal mice was set to five in order to minimize the number of experimental animals. The group administered with Compound (11) consisted of 5 mice, a minimal number required to obtain statistically meaningful data given the limited amount of the drug. Each of the remaining groups consisted of 7 mice, with two extra mice added to account for experimental error.
as §1
Oral administration was conducted daily according to the dose, dosing frequency and dosing period of Table 25. Based on the criteria shown in Table 24, rheumatoid arthritis score for the four paws were quantified and summed to generate the score.

The conditions of data set [3]: mouse, in vivo, po, 800 mg/kg.
Data set [4] concerns splenocytes. In words: NO scavenging activity in Concanavalin A-treated splenocytes (Griess assay). Type of data set: cell-based, C57BL/6 mouse. The note with it: Mus musculus, Splenocyte, Concanavalin A 5 µg/mL, 72 hours, read-out: NO Scavenging Activity (%) (Mean±SD). Summed up: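 Splenocytes from 8-week-old C57BL/6 mice at 5×10^6 cells/mL in RPMI 1640/10% FBS, stimulated with Concanavalin A (5 µg/mL) plus […] test composition added at plating. After 72 h culture, remaining NO in supernatant measured by Griess assay.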
On the technique in general: The Griess reaction detects nitrite, a stable product of nitric oxide.

Data set [5] in a line: Efficacy on DSS induced ulcerative colitis (disease activity index). The data set is classed as in vivo, mice. As for the experimental part: In order to establish an ulcerative colitis model, 2.5% DSS powder was mixed with drinking water and provided ad libitum. The DSS powder-containing drinking water was supplied for 5 to 6 days of disease induction period, and after that, normal drinking water was supplied.
The administered compounds of Table 21 were administered orally once daily. Hematochezia, diarrhea and body weight loss were scored according to the criteria shown in the following Table 22, and the scores were summed to calculate a disease activity index (DAI), which is shown in FIG. 4.
Efficacy of Compound (4) on ulcerative colitis was verified in the same manner as in Experimental Example 10-1, except that Compound (4) was used instead of Compound (1), and DSS was administered until day 5, and the drug was administered from day 6.

Data set [6] is described as follows: HPLC analysis of nitrogen monoxide sensitivity (release of the low-molecular-weight compound). Type of data set: physicochemical. The note with it: NaNO2 / sulfuric acid, 1 hour, room temperature; FIGS. 2A to 2C. As for the experimental part:
It was checked whether the pharmaceutical composition sensitive to nitrogen monoxide including the compound according to each of the Examples is capable of releasing a low-molecular-weight compound having pharmaceutical activity by separating a nitrogen monoxide scavenger in an environment where nitrogen monoxide is present.
A sample for HPLC analysis was prepared as follows. 28 mg of NaNO2 (0.41 mmol, 16.4 equiv) was dissolved in 0.3 mL of water, and then the mixture solution was cooled to 0°C to 5°C. After introducing 0.2 mL of sulfuric acid (0.1 mmol, 4 equiv) to the mixture solution, 12.2 mg of Compound (4) (0.025 mmol, 1 equiv), which was prepared in Example 4, dissolved in 0.2 mL of acetone was introduced thereto. The mixture solution was stirred for 1 hour at room temperature. After the reaction was finished, water and dichloromethane were introduced to the reaction solution for extraction. The organic layer was separated, then dried with magnesium sulfate, and filtered. […]
Specifically, referring to FIG. 2A, the peak of Compound (4) of Example 4, which is the pharmaceutical composition sensitive to nitrogen monoxide, was detected at 14.2 minutes. On the other hand, referring to FIG. 2B, the peak of Compound (4) disappeared in an environment where excess nitrogen monoxide is present, and a peak detected at 7.7 minutes was generated.

The test system of data set [7] is splenocytes. In words: Inhibitory activity on cell proliferation in splenocytes (CCK-8 analysis). Type of data set: cell-based, C57BL/6 mouse. The settings on record: Mus musculus, Splenocyte, Concanavalin A 5 µg/mL, 72 hours, read-out: Inhibitory Activity on Cell Proliferation (%) (Mean±SD).
For another data set, the system named is IFN-γ. Kind of data set: IFN-γ reduction activity in Concanavalin A-treated splenocytes (quantitative ELISA). Type of data set: cell-based, C57BL/6 mouse. The note with it: Mus musculus, Splenocyte, Concanavalin A 5 µg/mL, 72 hours, read-out: IFN-γ Reduction Activity (%) (Mean±SD). The procedure, abridged:
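Splenocytes from 8-week-old C57BL/6 mice at 5×10^6 cells/mL in RPMI 1640 with 10% FBS, stimulated with Concanavalin A (5 µg/mL) plus compound added concentration-dependently. Supernatant IFN-γ measured by quantitative ELISA after 72 h.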
(An ELISA detects its analyte on a solid surface through an enzyme-linked reagent.)

Another data set concerns Raw 264.7 cell line. In words: NO scavenging activity in LPS-treated immune cells (Griess reagent). Type of data set: cell-based. The note with it: Mus musculus, RAW264.7, Raw 264.7, LPS 500 ng/mL, 24 hours, read-out: NO Scavenging Activity (%) (Mean±SD).
Setting [8] is: 200 mg/kg single oral dose, mice, two days after administration.
Setting [9] is: 800 mg/kg single oral dose, mice, two days after administration.

As for `C[C@@H]1CCN(C(=O)CC#N)C[C@@H]1N(C)c1ncnc2[nH]ccc12` [Tofacitinib, tofacitinib], in [1] (setting [8]), the “WBC Differential Counting (LYM) (% of Normal)” value is reported as 81.1±31.3 % of Normal and the “WBC Differential Counting (NEU) (% of Normal)” value was 68.3±15.7 % of Normal. Further, in data set [1] (setting [9]), the “WBC (% of Normal)” value is recorded as 62.1±4.7 % of Normal, the “WBC Differential Counting (LYM) (% of Normal)” value was 61.2±4.6 % of Normal and the “WBC Differential Counting (NEU) (% of Normal)” value is 56.4±7.9 % of Normal. Further, in the data set “in vivo”, the MTD at 4 days was 400 mg/kg. The “rheumatoid arthritis-alleviating efficacy (arthritis score)” value in [2] (10 mg/kg oral twice daily (BID), day 39 (p<0.05) and day 40 (p<0.01), FIG. 7) is recorded as “Statistically significant rheumatoid arthritis-alleviating efficacy was observed”. Further, the “rheumatoid arthritis-alleviating efficacy (arthritis score)” value in [2] (40 mg/kg oral once daily, from day 33 after disease induction (p<0.01) to the end, FIG. 6) is “statistically significant rheumatoid arthritis-alleviating efficacy was observed”. Also, the hematological toxicity entry in data set [3] is recorded as “hematological toxicity was observed”.

`C[C@@H]1CCN(C(=O)CC#N)C[C@@H]1N(C)c1ncnc2c1ccn2C(=O)Nc1ccc(N(C)C)cc1N` [Example 4, N-(2-amino-4-(dimethylamino)phenyl)-4-(((3R,4R)-1-(2-cyanoacetyl)-4-methylpiperidin-3-yl)(methyl)amino)-7H-pyrrolo[2,3-d]pyrimidine-7-carboxamide]: the hematological toxicity responses entry in [1] (single oral dose 200 mg/kg and 800 mg/kg, compared with the normal group) is “No hematological toxicity responses were observed”. Moreover, the figures for the activity at 10 µM in the data set on splenocytes [4], in the data set on IFN-γ and in the data set on Raw 264.7 cell line were 91 ± 0.01%, 98.9 ± 0.03% and 68.7 ± 0.74%, respectively. The “efficacy in alleviating ulcerative colitis compared to tofacitinib” value in [5] (25 mg/kg oral once daily, FIGS. 4 and 5) is given as “comparable or more superior efficacy”. In data set [5] (DSS until day 5, drug from day 6, day 9 of the test, FIG. 5), the “efficacy on disease activity index (DAI)” value was “statistically significant efficacy was observed”. Also, in data set [6], the “release of the low-molecular-weight compound in the presence of excess nitrogen monoxide (HPLC)” value is reported as “reacted with excess nitrogen monoxide to release tofacitinib”. Further, the inhibition at 10 µM in the data set on splenocytes [7] was found to be 79.5 ± 6.67%.
